The values below come from US10538794B2, “Oligosaccharide libraries and methods of production” (Emory University, priority 2016, dated 2020).

For one series, the system named is Molt-4. Kind of series: CORA: Bn-O-glycans from media of Molt-4 cells, MALDI-TOF-MS. The class given is cell-based. Particulars: Molt-4, 50 μM, 3 d. As for the experimental part:
(§1) Adherent (HEK293) and suspension (Molt-4) cells were cultured in complete media containing 50 μM Ac3GalNAc-α-Bn or vehicle (dimethyl sulfoxide (DMSO)) for 3 d. Putative Bn-O-glycans from the media were separated from larger material with a cutoff membrane, purified by C18 chromatography, permethylated and analyzed by MALDI-TOF-MS. Here as elsewhere, the permethylated nonsulfated and/or nonphosphorylated glycans were analyzed.
(§2) Compound was added to complete media, and media was collected after incubation with cells. Media was run over a 10-kDa centrifugal filter (Amicon Ultra 4, Millipore) for ˜30 min at 2,465 g, and flow-through was collected. Bn-O-glycans were subsequently purified from flow-through with a Sep-Pak 3-cc C18 cartridge (Waters) by gravity chromatography. The column was equilibrated by two washes with 2 ml of acetonitrile and four washes with 2 ml of 0.1% (vol/vol) trifluoracetic acid (TFA). Media was applied and the column was washed four times with 2 ml of 0.1% (vol/vol) TFA for each wash. […]
(§3) Dried samples were permethylated. […] Spotted: 0.5 μl of matrix (10 mg/ml […] (Sigma), 50% (vol/vol) acetonitrile, 0.1% (vol/vol) TFA) and 0.5 μl of sample on an Anchorchip target plate, air dried the spots and analyzed by MALDI-TOF-MS using an Ultraflex-II TOF-TOF system (Bruker Daltonics). […]

Series [1] can be described thus: Stability of peracetylation in complete media. It counts as physicochemical. Here is the method:
(§4) To assess whether peracetylation of Bn-α-GalNAc enhances uptake and subsequent sensitivity, breast cancer cells (MDA-MB-231) were incubated with 0-250 μM Ac3GalNAc-α-Bn or Bn-α-GalNAc for 3 d. […] Further, peracetylation of Bn-α-GalNAc was stable in complete media for at least 3 d. Thus, peracetylation improved sensitivity, and at such low concentrations potential side effects should be limited, as explored below.

A further series deals with HEK293. Put plainly: CORA: Bn-O-glycans from media of HEK293 cells, MALDI-TOF-MS. It counts as cell-based. Particulars: HEK293, 50 μM, 3 d. As for the experimental part: as §1, §2, §3
Series [2] relates to breast cancer cells (MDA-MB-231). Put plainly: CORA: Bn-O-glycans in media of MDA-MB-231 cells incubated with precursor, MALDI-TOF-MS. It counts as cell-based. Particulars: MDA-MB-231, 0-250 μM; for lowest concentration at which Bn-O-glycans with the predicted sialylated core 2 structure were observed: 3 d. As for the experimental part:
as §4
To optimize conditions, MDA-MB-231 cells were cultured with 0-250 μM Ac3GalNAc-α-Bn for 2-4 d. […] Thus, CORA should be performed with low concentrations of Ac3GalNAc-α-Bn. For most subsequent studies, cells were incubated with 50 μM Ac3GalNAc-α-Bn for 3 d.
Ac3GalNAc-α-Bn or Bn-α-GalNAc was dissolved to 50 or 100 mM in DMSO and further diluted to 5-250 μM in complete media with 5% (vol/vol) FBS, except for HUVEC and human dermal fibroblast cultures, which were incubated in ATCC preformulated media. Media with compound was administered 1 d (most cells) or 2 d (HUVECs and human dermal fibroblasts) after seeding. Cells were then incubated for 2-4 d with compound before media was collected.
Compound was added to complete media, and media was collected after incubation with cells. Media was run over a 10-kDa centrifugal filter (Amicon Ultra 4, Millipore) for ˜30 min at 2,465 g, and flow-through was collected. Bn-O-glycans were subsequently purified from flow-through with a Sep-Pak 3-cc C18 cartridge (Waters) by gravity chromatography. The column was equilibrated by two washes with 2 ml of acetonitrile and four washes with 2 ml of 0.1% (vol/vol) trifluoracetic acid (TFA). Media was applied and the column was washed four times with 2 ml of 0.1% (vol/vol) TFA for each wash. Bn-O-glycans were then eluted with two 1.5-ml applications of 50% (vol/vol) acetonitrile, 0.1% (vol/vol) TFA. Eluent was divided into three fractions, concentrated by CentriVap to remove organic solvents, and lyophilized.
Dried samples were permethylated. NaOH-DMSO (200 μl) slurry was added followed by 200 μl of methyl iodide to samples. Samples were shaken for 30 min and then spun down at 5,000 g for 5 min. Supernatant was collected and chloroform extraction was performed to isolate permethylated glycans. Chloroform (500 μl) and 500 μl of water was added to supernatant. The samples were mixed and centrifuged at 5,000 g for 1 min. Two more washes were performed with 500 μl of water each before evaporating chloroform by CentriVap for 30 min. Bn-O-glycans were then resuspended in 25 or 50 μl of 50% (vol/vol) methanol. Spotted: 0.5 μl of matrix (10 mg/ml […] (Sigma), 50% (vol/vol) acetonitrile, 0.1% (vol/vol) TFA) and 0.5 μl of sample on an Anchorchip target plate, air dried the spots and analyzed by MALDI-TOF-MS using an Ultraflex-II TOF-TOF system (Bruker Daltonics). […]

For the next series, the system named is cells. Put plainly: CORA with the isomer Ac3GlcNAc-β-Bn: secretion of Bn-O-glycans. The class given is cell-based. As for the experimental part:
CORA is an approach for both amplifying and profiling the mucin-type O-glycome in living cells. […] For example, MS analyses of β-eliminated O-glycans from WEHI-3 cells have not identified sialyl-LeX on core 2 O-glycans, a critical component on PSGL-1 recognized by P-selectin, which binds WEHI-3 cells. […] Thus the novel structures identified are natural O-glycans, mostly present on glycoproteins at low abundance.
CORA was performed on cells with mutant or wild-type C1galt1c1 (Cosmc), a chaperone known to be essential for T-synthase activity. Only cells with functional Cosmc and active T-synthase secreted Bn-O-glycans when we administered Ac3GalNAc-α-Bn (FIG. 2A-D).
Compound was added to complete media, and media was collected after incubation with cells. Media was run over a 10-kDa centrifugal filter (Amicon Ultra 4, Millipore) for ˜30 min at 2,465 g, and flow-through was collected. Bn-O-glycans were subsequently purified from flow-through with a Sep-Pak 3-cc C18 cartridge (Waters) by gravity chromatography. […]
as §3

Each structure is given as a SMILES string. Entries after “also recorded” stand apart in the source; their conditions may differ.

`CC(=O)N[C@H]1[C@@H](OCc2ccccc2)O[C@H](COC(C)=O)[C@H](OC(C)=O)[C@@H]1OC(C)=O` [Ac3GalNAc-α-Bn, peracetylated benzyl-α-N-acetylgalactosamine]: the “uptake and modification of the O-glycan precursor by glycosyltransferases (core 1- and core 2-based Bn-O-glycan compositions observed)” value is “efficient uptake and modification” with Molt-4; “efficient uptake and modification” with HEK293. Further, the “peracetylation stable in complete media” value in series [1] is recorded as “at least 3 d”. The “effect of increasing concentration on Bn-O-glycan abundance” value in series [2] (2-4 d) was “shifted abundance from disialylated to monosialylated core 2”. The “lowest concentration at which Bn-O-glycans in culture media were seen” value in series [2] (2 d) was 5 µM. Besides, in series [2], the “lowest concentration at which Bn-O-glycans with the predicted sialylated core 2 structure were observed” value is 25 µM.
Regarding `CC(=O)N[C@H]1[C@H](OCc2ccccc2)O[C@H](COC(C)=O)[C@@H](OC(C)=O)[C@@H]1OC(C)=O` [Ac3GlcNAc-β-Bn], the “Bn-O-glycans secreted by cells incubated with the compound” value in the series with cells is “no glycans or a trisaccharide (Sia-Gal-GlcNAc-Bn) only; also recorded: no Bn-O-glycans or only the simple trisaccharide Neu5Ac-Gal-GlcNAc-Bn”.
Take `CC(=O)N[C@H]1[C@@H](OCc2ccccc2)O[C@H](CO)[C@H](O)[C@@H]1O` [Bn-α-GalNAc, reference compound]: the “lowest concentration at which Bn-O-glycans with the predicted sialylated core 2 structure were observed” value in series [2] is 250 µM.
